Results published in patent US8383629B2, “Inhibitors of 11β-hydroxysteroid dehydrogenase type 1” (Vitae Pharmaceuticals, Inc., priority 2008, dated 2013).

Molecular target: T1, human 11β-HSD1 (Homo sapiens, UniProt P28845)
T1 construct: expressed in transfected cells; host or cells: CHO cells (microsomes)
Experiment: Inhibition of microsomal preparation of 11β-HSD1 (SPA, Biological Test Example 1)
Format: biochemical
Conditions: for inhibition at 0.111 µM: 111 nM; for IC50: microsomes from CHO cells overexpressing human 11β-HSD1, read-out: IC50 Range
In short: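 Microsomes from CHO cells overexpressing human 11β-HSD1 reduced [3H]cortisone (160 nM in substrate solution, with 2 mM NADPH, HEPES pH 7.4) for 90 min at rt after a 10 min compound preincubation. Compounds were run as 8-point half-log DMSO dilutions from 0.1 mM. 18β-glycyrrhetinic acid stopped the reaction, and anti-cortisol antibody SPA beads read [3H]cortisol.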

T1 sequence (P28845 whole entry): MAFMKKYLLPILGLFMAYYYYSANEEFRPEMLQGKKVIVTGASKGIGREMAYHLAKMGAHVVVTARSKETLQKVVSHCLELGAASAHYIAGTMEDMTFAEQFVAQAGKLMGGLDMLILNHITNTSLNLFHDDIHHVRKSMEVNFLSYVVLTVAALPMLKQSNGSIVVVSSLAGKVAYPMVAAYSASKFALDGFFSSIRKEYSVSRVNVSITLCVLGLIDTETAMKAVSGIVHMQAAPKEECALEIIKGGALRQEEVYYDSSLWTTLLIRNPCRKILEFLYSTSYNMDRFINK

Question: For `O=C(O)CC1CC2(CCN(C(=O)NCc3ccccc3C(F)(F)F)CC2)c2c(Br)cccc21` (centres unmarked) [EXAMPLE 94, 2-(7-bromo-1′-(2-(trifluoromethyl)benzylcarbamoyl)-2,3-dihydrospiro[indene-1,4′-piperidine]-3-yl)acetic acid], which inhibition at 0.111 µM is on record?
Answer: 75.7%

Question: What about the IC50 of the same molecule?
Answer: < 100 nM

Question: For `CCOC(=O)CC1CC2(CCN(C(=O)NCc3ccccc3OC(C)C)CC2)c2c(Br)cccc21` (centres unmarked) [EXAMPLE 95, Ethyl 2-(7-bromo-1′-(2-isopropoxybenzylcarbamoyl)-2,3-dihydrospiro[indene-1,4′-piperidine]-3-yl)acetate], which inhibition at 0.111 µM is on record?
Answer: 19.9%

Question: And the IC50?
Answer: 100 to 1000 nM

Question: For `O=C(O)CC1CC2(CCN(C(=O)NCc3ccccc3N3CCCC3)CC2)c2c(Br)cccc21` (centres unmarked) [EXAMPLE 96, 2-(7-bromo-1′-(2-(pyrrolidin-1-yl)benzylcarbamoyl)-2,3-dihydrospiro[indene-1,4′-piperidine]-3-yl)acetic acid], which inhibition at 0.111 µM is on record?
Answer: 48.9%

Question: And the IC50?
Answer: 100 to 1000 nM

Question: What does the source list for `CS(=O)(=O)c1ccccc1CNC(=O)N1CCC2(CC1)CC(CC(=O)O)c1cccc(Br)c12` (centres unmarked) [EXAMPLE 97, 2-(7-bromo-1′-(2-(methylsulfonyl)benzylcarbamoyl)-2,3-dihydrospiro[indene-1,4′-piperidine]-3-yl)acetic acid]?
Answer: inhibition at 0.111 µM: 5.6%; IC50: 100 to 1000 nM

Question: For `CC(C)Oc1ccccc1CNC(=O)N1CCC2(CC1)CC(CC(=O)O)c1cccc(Br)c12` (centres unmarked) [EXAMPLE 98, 2-(7-bromo-1′-(2-isopropoxybenzylcarbamoyl)-2,3-dihydrospiro[indene-1,4′-piperidine]-3-yl)acetic acid], which inhibition at 0.111 µM is on record?
Answer: 48.2%

Question: What about the IC50 of the same molecule?
Answer: < 100 nM

Question: `O=C1CC2(CCN(C(=O)NCc3ccccc3OC(F)(F)F)CC2)c2c(Br)cccc21` [EXAMPLE 99, 7-bromo-3-oxo-N-(2-(trifluoromethoxy)benzyl)-2,3-dihydrospiro[indene-1,4′-piperidine]-1′-carboxamide] was tested. Which inhibition at 0.111 µM did it give?
Answer: 75.6%

Question: And the IC50?
Answer: < 100 nM

Question: With `CN1C(=O)c2cccc(Cl)c2C12CCN(C(=O)NCc1ccccc1C(F)(F)F)CC2` [EXAMPLE 100, 7-chloro-2-methyl-3-oxo-N-(2-(trifluoromethyl)benzyl)spiro[isoindoline-1,4′-piperidine]-1′-carboxamide] as the molecule, how does the inhibition at 0.111 µM read?
Answer: 46.8%

Question: What about the IC50 of the same molecule?
Answer: 100 to 1000 nM

Question: Which inhibition at 0.111 µM does the source give for `CCOC(=O)CC1CC2(CCN(C(=O)N(C)Cc3ccccc3C(F)(F)F)CC2)c2c(Br)cccc21` (centres unmarked) [EXAMPLE 101, Ethyl 2-(7-bromo-1′-(methyl(2-(trifluoromethyl)benzyl)carbamoyl)-2,3-dihydrospiro[indene-1,4′-piperidine]-3-yl)acetate] here?
Answer: 42.6%

Question: And the IC50?
Answer: 100 to 1000 nM

Question: What does the source list for `CN(Cc1ccccc1C(F)(F)F)C(=O)N1CCC2(CC1)CC(CC(=O)O)c1cccc(Br)c12` (centres unmarked) [EXAMPLE 102, 2-(7-bromo-1′-(methyl(2-(trifluoromethyl)benzyl)carbamoyl)-2,3-dihydrospiro[indene-1,4′-piperidine]-3-yl)acetic acid]?
Answer: inhibition at 0.111 µM: 64.4%; IC50: < 100 nM

Question: Which results are given for `CCOC(=O)CC1CC2(CCN(C(=O)N(C)Cc3ccccc3F)CC2)c2c(Br)cccc21` (centres unmarked) [EXAMPLE 103, Ethyl 2-(7-bromo-1′-((2-fluorobenzyl)(methyl)carbamoyl)-2,3-dihydrospiro[indene-1,4′-piperidine]-3-yl)acetate]?
Answer: inhibition at 0.111 µM: 79.4%; IC50: < 100 nM

Question: What does the source list for `CN(Cc1ccccc1F)C(=O)N1CCC2(CC1)CC(CC(=O)O)c1cccc(Br)c12` (centres unmarked) [EXAMPLE 104, 2-(7-bromo-1′((2-fluorobenzyl)(methyl)carbamoyl)-2,3-dihydrospiro[indene-1,4′-piperidine]-3-yl)acetic acid]?
Answer: inhibition at 0.111 µM: 88.7%; IC50: < 100 nM

Question: Which inhibition at 0.111 µM does the source give for `O=C1CC2(CCN(C(=O)OCc3ccccc3C(F)(F)F)CC2)c2c(Br)cccc21` [EXAMPLE 105, 2-(trifluoromethyl)benzyl 7-bromo-3-oxo-2,3-dihydrospiro[indene-1,4′-piperidine]-1′-carboxylate] here?
Answer: 82.3%

Question: What about the IC50 of the same molecule?
Answer: < 100 nM

Question: How did the IC50 turn out when `O=C1CC2(CCN(C(=O)COc3ccccc3C(F)(F)F)CC2)c2c(Br)cccc21` [EXAMPLE 106, 7-bromo-1′-(2-(2-(trifluoromethyl)phenoxy)acetyl)spiro[indene-1,4′-piperidin]-3(2H)-one] was run?
Answer: < 100 nM

Question: How did the IC50 turn out when `O=C1CC2(CCN(C(=O)CNc3ccccc3C(F)(F)F)CC2)c2c(Br)cccc21` [EXAMPLE 107] was run?
Answer: 100 to 1000 nM
